Patent US9334285B2, “Aldosterone synthase inhibitors” (Boehringer Ingelheim International GmbH, priority 2014, dated 2016)
Read-outs that look alike come from different tables or passages of the source.

Assays:
[1] = target: T1, aldosterone synthase (CYP11B2) (Macaca fascicularis, UniProt A0A2K5UPL9); test: Inhibition of aldosterone synthase, cynomolgus adrenal mitochondria, aldosterone quantified by mass spectrometry; type: biochemical, cynomolgus monkey; details: 2 μM corticosterone, 90 minutes at 37° C.
T1 construct: employ cynomolgus adrenal gland mitochondria as the source of aldosterone synthase (CYP11B2); from tissue; host or cells: cynomolgus monkey adrenal gland mitochondria
T1 sequence (A0A2K5UPL9 1-503): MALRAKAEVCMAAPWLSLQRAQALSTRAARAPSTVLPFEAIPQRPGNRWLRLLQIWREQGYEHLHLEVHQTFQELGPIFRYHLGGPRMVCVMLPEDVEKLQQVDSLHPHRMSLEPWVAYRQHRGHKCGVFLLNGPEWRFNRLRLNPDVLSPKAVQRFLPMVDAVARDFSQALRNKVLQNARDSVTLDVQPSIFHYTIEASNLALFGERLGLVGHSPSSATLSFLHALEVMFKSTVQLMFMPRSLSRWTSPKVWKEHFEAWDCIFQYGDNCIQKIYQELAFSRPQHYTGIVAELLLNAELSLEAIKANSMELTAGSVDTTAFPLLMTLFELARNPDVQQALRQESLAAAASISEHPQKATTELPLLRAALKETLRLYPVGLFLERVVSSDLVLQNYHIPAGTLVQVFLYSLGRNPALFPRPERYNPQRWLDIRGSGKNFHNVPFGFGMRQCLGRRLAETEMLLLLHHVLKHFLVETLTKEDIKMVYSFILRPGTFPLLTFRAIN
Description: The aldosterone synthase and cortisol synthase inhibition assays employ cynomolgus adrenal gland mitochondria as the source of aldosterone synthase (CYP11B2) and cortisol synthase (CYP11B1). […] One unit of CYP11B2 and CYP11B1 activity in these preparations is defined as the amount of enzyme that generates 1 pmol of product in one hour under the conditions described.
The compounds of the invention may be evaluated for aldosterone synthase inhibition by the following assay:
Assays are performed in 96-well format in a final volume of 60 microL/well, containing 100 mM potassium phosphate, pH 7.4, 1% (v/v) DMSO, and additionally, 2 μM of corticosterone and 50 units of CYP11B2 activity. Reactions are started by the addition of NADPH to 1 mM and allowed to proceed for 90 minutes at 37° C. Reactions are terminated by the addition of 60 μL of MeCN containing an internal standard for mass spectrometry. One hundred microliters are then transferred to a glass filter plate and centrifuged at 570×g for 5 minutes and the filtrate is collected. Reaction product aldosterone is quantified by mass spectrometry. To determine the assay blank value (0% activity), NADPH is omitted from some reactions.
Dose dependent inhibition is quantified by the inclusion of compound at various concentrations. Maximum activity (100%) is defined by reactions containing NADPH, but without compound.

[2] = target: cortisol synthase (CYP11B1) (Macaca fascicularis, UniProt A0A2K5ULY1); test: Inhibition of cortisol synthesis, cynomolgus adrenal mitochondria, 11-deoxycortisol as substrate; type: biochemical, cynomolgus monkey; details: 150 units of CYP11B1, 11-deoxycortisol as substrate
Description: The aldosterone synthase and cortisol synthase inhibition assays employ cynomolgus adrenal gland mitochondria as the source of aldosterone synthase (CYP11B2) and cortisol synthase (CYP11B1). Mitochondria are prepared from frozen cynomolgus monkey adrenal glands according to Method A described in by J. D. McGarry et al. (Biochem. J., 1983, 214, 21-28), with a final resuspension in the AT buffer described in R. Yamaguchi et al. (Cell Death and Differentiation, 2007, 14, 616-624), frozen as aliquots in liquid nitrogen and stored at −80° C. until use. One unit of CYP11B2 and CYP11B1 activity in these preparations is defined as the amount of enzyme that generates 1 pmol of product in one hour under the conditions described.
Assays are performed as for aldosterone synthase except for the use of 150 units of CYP11B1, 11-deoxycortisol as substrate and cortisol measured as product.

[3] = Cortisol Inhibition IC50, cynomolgus adrenal mitochondria
[4] = cynomolgus adrenal mitochondria, read-out: Cortisol Inhibition IC50

Compound: CC1Cc2ncn(-c3ccc(C#N)c(Cl)c3)c2C(=O)O1 (single isomer, unassigned) [Compound 15A, 2-chloro-4-[6-methyl-4-oxo-3H,4H,6H,7H-pyrano[3,4-d]imidazol-3-yl]benzonitrile]
- IC50 [1]: 7.5 nM
- IC50 [2, 3]: 3400 nM

Compound: CC1Cc2ncn(-c3ccc(C#N)c(Cl)c3)c2C(=O)O1 (single isomer, unassigned) [Compound 15B, 2-chloro-4-[6-methyl-4-oxo-3H,4H,6H,7H-pyrano[3,4-d]imidazol-3-yl]benzonitrile]
- IC50 [1]: 12 nM
- IC50 [2, 3]: 6400 nM

Compound: CC1(CO)Cc2ncn(-c3cccc(F)c3Cl)c2C(=O)O1 (single isomer, unassigned) [Compound 34A, 3-(2-chloro-3-fluorophenyl)-6-(hydroxymethyl)-6-methyl-3H,4H,6H,7H-pyrano[3,4-d]imidazol-4-one]
- IC50 [1]: 870 nM
- IC50 [2, 4]: > 30000 nM

Compound: CC1(CO)Cc2ncn(-c3cccc(Cl)c3F)c2C(=O)O1 (single isomer, unassigned) [Compound 35B, 3-(3-chloro-2-fluorophenyl)-6-(hydroxymethyl)-6-methyl-3H,4H,6H,7H-pyrano[3,4-d]imidazol-4-one]
- IC50 [1]: 620 nM
- IC50 [2, 4]: > 30000 nM

Compound: CC1(CO)Cc2ncn(-c3ccc(Cl)cc3)c2C(=O)O1 (single isomer, unassigned) [Compound 38A, 3-(4-chlorophenyl)-6-(hydroxymethyl)-6-methyl-3H,4H,6H,7H-pyrano[3,4-d]imidazol-4-one]
- IC50 [1]: 120 nM
- IC50 [2, 4]: 19000 nM

Compound: CC1(CO)Cc2ncn(-c3ccc(Cl)cc3)c2C(=O)O1 (single isomer, unassigned) [Compound 38B, 3-(4-chlorophenyl)-6-(hydroxymethyl)-6-methyl-3H,4H,6H,7H-pyrano[3,4-d]imidazol-4-one]
- IC50 [1]: 390 nM
- IC50 [2, 4]: 36000 nM

Compound: CN1C(=O)CCc2cc(-n3cnc4c3C(=O)OC(C)(CO)C4)ccc21 (single isomer, unassigned) [Compound 40A, 6-[6-(hydroxymethyl)-6-methyl-4-oxo-3H,4H,6H,7H-pyrano[3,4-d]imidazol-3-yl]-1-methyl-1,2,3,4-tetrahydroquinolin-2-one]
- IC50 [1]: 160 nM
- IC50 [2, 4]: > 30000 nM

Compound: CN1C(=O)CCc2cc(-n3cnc4c3C(=O)OC(C)(CO)C4)ccc21 (single isomer, unassigned) [Compound 40B, 6-[6-(hydroxymethyl)-6-methyl-4-oxo-3H,4H,6H,7H-pyrano[3,4-d]imidazol-3-yl]-1-methyl-1,2,3,4-tetrahydroquinolin-2-one]
- IC50 [1]: 460 nM
- IC50 [2, 4]: > 30000 nM

Compound: CC1(CO)Cc2ncn(-c3ccc4c(c3)CCO4)c2C(=O)O1 (single isomer, unassigned) [Compound 42A, 3-(2,3-Dihydro-benzofuran-5-yl)-6-hydroxymethyl-6-methyl-6,7-dihydro-3H-pyrano[3,4-d]imidazol-4-one]
- IC50 [1]: 210 nM
- IC50 [2, 4]: > 30000 nM

Compound: CC(C)(C)OC(=O)NCC1(C)Cc2ncn(-c3ccc(F)c(F)c3)c2C(=O)O1 (centres unmarked) [Compound 1, tert-butyl N{[3-(3,4-difluorophenyl)-6-methyl-4-oxo-3H,4H,6H,7H-pyrano[3,4-d]imidazol-6-yl]methyl}carbamate]
- IC50 [1]: 55 nM
- IC50 [2, 4]: 2300 nM

Compound: CC1(C)Cc2ncn(-c3ccc(Cl)c(Cl)c3)c2C(=O)O1 [Compound 4, 3-(3,4-dichlorophenyl)-6,6-dimethyl-3H,4H,6H,7H-pyrano[3,4-d]imidazol-4-one]
- IC50 [1]: 8.4 nM
- IC50 [2, 4]: 1200 nM

Compound: CC1(C)Cc2ncn(-c3cccc(F)c3Cl)c2C(=O)O1 [Compound 7, 3-(2-chloro-3-fluorophenyl)-6,6-dimethyl-3H,4H,6H,7H-pyrano[3,4-d]imidazol-4-one]
- IC50 [1]: 50 nM
- IC50 [2, 4]: 6800 nM

Compound: CC1(C)Cc2ncn(-c3ccc(Cl)c(C#N)c3)c2C(=O)O1 [Compound 12, 2-chloro-5-{6,6-dimethyl-4-oxo-3H,4H,6H,7H-pyrano[3,4-d]imidazol-3-yl}benzonitrile]
- IC50 [1]: 290 nM
- IC50 [2, 4]: 24000 nM

Compound: CC1(C)Cc2ncn(-c3ccc(F)cc3)c2C(=O)O1 [Compound 14, 3-(4-fluorophenyl)-6,6-dimethyl-3H,4H,6H,7H-pyrano[3,4-d]imidazol-4-one]
- IC50 [1]: 130 nM
- IC50 [2, 4]: 13000 nM

Compound: CC1(C)Cc2ncn(-c3ccccc3)c2C(=O)O1 [Compound 17, 6,6-dimethyl-3-phenyl-3H,4H,6H,7H-pyrano[3,4-d]imidazol-4-one]
- IC50 [1]: 390 nM
- IC50 [2, 4]: 61000 nM

Compound: O=C1OCCc2ncn(-c3ccc(Cl)cc3)c21 [Compound 20, 3-(4-chlorophenyl)-3H,4H,6H,7H-pyrano[3,4-d]imidazol-4-one]
- IC50 [1]: 470 nM
- IC50 [2, 4]: 65000 nM

Compound: N#Cc1ccc(-n2cnc3c2C(=O)OCC3)cc1 [Compound 21, 4-{4-oxo-3H,4H,6H,7H-pyrano[3,4-d]imidazol-3-yl}benzonitrile]
- IC50 [1]: 420 nM
- IC50 [2, 4]: 82000 nM

Compound: N#Cc1ccc(-n2cnc3c2C(=O)OCC3)cc1Cl [Compound 22, 2-chloro-4-{4-oxo-3H,4H,6H,7H-pyrano[3,4-d]imidazol-3-yl}benzonitrile]
- IC50 [1]: 25 nM
- IC50 [2, 3]: 18000 nM

Compound: O=C1OCCc2ncn(-c3ccc(Cl)c(Cl)c3)c21 [Compound 23, 3-(3,4-dichlorophenyl)-3H,4H,6H,7H-pyrano[3,4-d]imidazol-4-one]
- IC50 [1]: 14 nM
- IC50 [2, 4]: 10000 nM

Compound: O=C1OCCc2ncn(-c3ccc(F)c(F)c3)c21 [Compound 24, 3-(3,4-difluorophenyl)-3H,4H,6H,7H-pyrano[3,4-d]imidazol-4-one]
- IC50 [1]: 440 nM
- IC50 [2, 4]: 20000 nM

Compound: O=C1OCCc2ncn(C3Cc4ccccc4C3)c21 [Compound 25, 3-(2,3-dihydro-1H-inden-2-yl)-3H,4H,6H,7H-pyrano[3,4-d]imidazol-4-one]
- IC50 [1]: 500 nM
- IC50 [2, 3]: > 30000 nM

Compound: CC1(C)Cc2ncn(C3Cc4ccccc4C3)c2C(=O)O1 [Compound 26]
- IC50 [1]: 64 nM
- IC50 [2, 4]: 25000 nM

Compound: CC1(CO)Cc2ncn(C3Cc4ccccc4C3)c2C(=O)O1 (centres unmarked) [Compound 27, 3-(2,3-dihydro-1H-inden-2-yl)-6-(hydroxymethyl)-6-methyl-3H,4H,6H,7H-pyrano[3,4-d]imidazol-4-one]
- IC50 [1]: 220 nM
- IC50 [2, 4]: > 30000 nM

Compound: CC(=O)OCC1(C)Cc2ncn(-c3ccc(C#N)c(Cl)c3)c2C(=O)O1 (centres unmarked) [Compound 32, [3-(3-chloro-4-cyanophenyl)-6-methyl-4-oxo-3H,4H,6H,7H-pyrano[3,4-d]imidazol-6-yl]methyl acetate]
- IC50 [1]: 36 nM
- IC50 [2, 3]: 6500 nM

Compound: O=C1OC(CO)Cc2ncn(-c3ccc(Cl)cc3)c21 (centres unmarked) [Compound 36, 3-(4-chlorophenyl)-6-(hydroxymethyl)-3H,4H,6H,7H-pyrano[3,4-d]imidazol-4-one]
- IC50 [1]: 540 nM
- IC50 [2, 4]: > 100000 nM

Compound: CC1(CO)Cc2ncn(-c3ccc(C#N)cc3)c2C(=O)O1 (centres unmarked) [Compound 37, 4-[6-(hydroxymethyl)-6-methyl-4-oxo-3H,4H,6H,7H-pyrano[3,4-d]imidazol-3-yl]benzonitrile]
- IC50 [1]: 210 nM
- IC50 [2, 4]: 34000 nM

Compound: CC1Cc2ncn(-c3ccc(Cl)c(Cl)c3)c2C(=O)O1 (centres unmarked) [Compound 41, 3-(3,4-dichlorophenyl)-6-methyl-3H,4H,6H,7H-pyrano[3,4-d]imidazol-4-one]
- IC50 [1]: 8.6 nM
- IC50 [2, 4]: 6000 nM

Compound: COC(=O)C1(C)Cc2ncn(-c3ccc(C#N)c(Cl)c3)c2C(=O)O1 (centres unmarked) [Compound 45, 3-(3-Chloro-4-cyano-phenyl)-6-methyl-4-oxo-3,4,6,7-tetrahydro-pyrano[3,4-d]imidazole-6-carboxylic acid methyl ester]
- IC50 [1]: 28 nM
- IC50 [2, 3]: 1100 nM
